{
  "source": "patent US6235761A",
  "about": "“Compound, composition and method for treating cancer” (priority 1999, dated 2001)",
  "key": {"[1]": {"system": "patients with advanced solid tumors", "details": "cited from earlier work"}, "[2]": {"test": "Human plasma levels of penclomedine and demethylpenclomedine during 5 day penclomedine treatment", "format": "in vivo, human patients", "text": "FIG. 1 depicts levels of penclomedine and the demethylpenclomedine metabolite in human plasma, as determined by HPLC chromatographic analysis with uv detection.\nFIG. 2 depicts the penclomedine (gray shade) and demethylpenclomedine (white) levels in human plasma on each of five treatment days. Data are from a single patient and are typical. The same ordinate scale is used for both penclomedine and demethylpenclomedine. Pre-infusion levels are depicted without cross hatchings; end of infusion levels are depicted with cross hatchings.\nA 1 ml aliquot of tissue homogenate or a […] was acidified with 200 ml of 0.7 M ammonium phosphate pH 2.7, then 3 ml of ethyl acetate was added. This mixture was vortexed, centrifuged and the organic layer was collected. Fifty microliters of DMSO were added, and the ethyl acetate was concentrated to approximately […] with a stream of dry nitrogen. Fifty microliters of acetonitrile were added to this residue, and the resulting solution was analyzed by HPLC. Human plasma was processed identically to mouse plasma with the exception that 500 ml of plasma was extracted. Concentrated cage washings were analyzed by HPLC without further processing.\nHPLC Assays: The HPLC system consisted of a Hewlett-Packard Series II 1090 liquid chromatograph with diode array detector (Hewlett-Packard, Palo Alto, Calif.). The column used was an Alltech Adsorbosphere HS C18 5 m 250×4.6 mm column (Alltech Associates, Deerfield, Ill.). The system used a gradient elution consisting of 100% 10 mM ammonium phosphate buffer pH 2.7 progressing to 100% acetonitrile over 25 minutes at 1 ml/min. Detection was performed by means of ultraviolet absorbance at 240 nm as well as by means of radioactivity using a Radiomatic Flo-One/Beta A140 radioactive flow detector (Packard Instrument Co., Downers Grove, Ill.) equipped with a […] and Flo-Scint VI scintillation cocktail at a 2:1 ratio.\nThis example illustrates the distribution of penclomedine and 4-demethylpenclomedine in human plasma during a 5 day treatment schedule using penclomedine.\nPlasma levels of the metabolite and penclomedine were determined in 9 patients during the 5 day treatment schedule. […] Demethylpenclomedine plasma levels were equal to penclomedine plasma levels by 10 min after end of the infusion and rose to 9.5 μM by 7 hrs. […] The ratio of demethylpenclomedine to penclomedine in the post-infusion plasma sample obtained on day 1 of treatment was approximately 1:1; however, impressive accumulation of demethylpenclomedine was noted during the five day treatment schedule and by the final day this ratio was often greater than 10. […] A summary of post-infusion demethylpenclomedine plasma levels determined on each day of treatment for 9 patients is set forth in Table 4."}, "[3]": {"system": "MX-1 mammary tumor", "test": "sc MX-1 mammary tumor in athymic mice (Table 2)", "format": "in vivo, human tumor in athymic mice (Ncr-nu)", "experimental": "(§1) This Example illustrates the efficacy of penclomedine and 4-demethylpenclomedine in the treatment of cancer. MX-1 mammary tumor xenograft was subcutaneously implanted into mice, and the mice were exposed to the compounds. The testing of the mice was performed following a published procedure. See, e.g., Plowman et al., supra; Geran et al., Cancer Chemother. Rep., Part 2, 1-55 (1972); Developmental Therapeutics Program, Division of Cancer Treatment, NCI, in In Vivo Models 1976-1982, NIH Publication No. 84-2635, Washington D.C., U.S. Govt. Printing Office (1984).\n(§2) This Example further illustrates the efficacy of penclomedine and 4-demethylpenclomedine in the treatment of cancer. The compounds were tested in vivo on mice by the procedure set forth in Example 2. The results obtained are set forth in Table 2 and confirm that 4-demethyl-penclomedine is active against cancer, particularly mammary, colon, and renal cancer.\n(§3) ^a Athymic mice (Ncr-nu) were implanted either intracranially (ic) with\n(§4) […] MX-1 mammary tumor cells or subcutaneously (sc) with fragments of\n(§5) human tumors (CAKI-, renal; HT29, colon; MX-1, mammary).\n(§6) ^b The difference in the median of time poststaging for tumors to\n(§7) double in mass: T (treated mice), C (control mice)"}, "[4]": {"system": "CAKI-1 renal tumor", "test": "sc CAKI-1 renal tumor in athymic mice (Table 2)", "format": "in vivo, human tumor in athymic mice (Ncr-nu)", "details": "for T-C / Tumor-Free Survival/Total: days 19-23", "experimental": "as §1, §2, §3, §4, §5, §6, §7"}, "[5]": {"system": "dogs", "details": "cited from earlier work"}, "[6]": {"system": "rats", "details": "dose related; during or immediately after infusion; cited from earlier work"}, "[7]": {"system": "HT29 colon tumor", "test": "sc HT29 colon tumor in athymic mice (Table 2)", "format": "in vivo, human tumor in athymic mice (Ncr-nu)", "details": "for T-C / Tumor-Free Survival/Total: days 14-18", "experimental": "as §1, §2, §3, §4, §5, §6, §7"}, "[8]": {"details": "cited from earlier work"}, "[9]": {"details": "1 hr i.v. infusion penclomedine 315 mg/m^2"}, "[10]": {"details": "five day samples, same patient, FIG. 2"}, "[11]": {"details": "human plasma, single patient, FIG. 1"}, "[12]": {"details": "repeated administration of penclomedine"}, "[13]": {"details": "135 mg/kg/dose oral, highest dosage level, days 13-17"}},
  "data": [
    {"compound": "COc1nc(C(Cl)(Cl)Cl)c(Cl)c(OC)c1Cl", "note": "[Penclomedine, 3,5-dichloro-2,4-dimethoxy-6-(trichloromethyl)pyridine]", "values": [
      {"measurement": "toxicities reported in preclinical and early clinical studies", "setting": "[1]; human, in vivo", "value": "Neurological and hematological toxicities"},
      {"measurement": "principal dose limiting toxicity", "setting": "[1]; one hour infusion for 5 consecutive days, advanced solid tumors", "value": "Neurotoxicity, consisting of dysmetria, ataxia, and vertigo"},
      {"measurement": "decline of plasma levels after infusion", "setting": "[2]; [9]", "value": "rapidly declined in an apparently biexponential fashion"},
      {"measurement": "post-infusion plasma level", "setting": "[2]; [10]", "value": "always less than μM"},
      {"measurement": "pre-infusion plasma level", "setting": "[2]; [10]", "value": "barely detectable"},
      {"measurement": "plasma level time course", "setting": "[2]; [11]", "value": "rapidly cleared from plasma"},
      {"measurement": "α of biexponential decay", "setting": "[2]; [11]", "value": 3.88, "unit": "h⁻¹"},
      {"measurement": "k el", "setting": "[2]; in vivo, iv, human plasma, single patient, FIG. 1, read-out: β of biexponential decay (converted)", "value": 0.000127, "unit": "s⁻¹"},
      {"measurement": "T-C", "setting": "[3]; 135 mg/kg/dose IP, days 12-16", "value": "> 41.0", "unit": "days"},
      {"measurement": "Tumor-Free Survival/Total", "setting": "[3]; 135 mg/kg/dose IP, days 12-16", "value": "5/5"},
      {"measurement": "T-C", "setting": "[3]; 135 mg/kg/dose IP, days 13-17", "value": "> 38.5", "unit": "days"},
      {"measurement": "Tumor-Free Survival/Total", "setting": "[3]; 135 mg/kg/dose IP, days 13-17", "value": "5/5"},
      {"measurement": "T-C", "setting": "[3]; 135 mg/kg/dose IP, days 15-19", "value": "> 37.2", "unit": "days"},
      {"measurement": "Tumor-Free Survival/Total", "setting": "[3]; 135 mg/kg/dose IP, days 15-19", "value": "5/5"},
      {"measurement": "T-C, comparison of the two compounds", "setting": "[3]; Table 2", "value": "nearly identical T-C"},
      {"measurement": "survival rate, compared with 4-demethylpenclomedine", "setting": "[3]; Table 2", "value": "slightly higher survival rate"},
      {"measurement": "T-C", "setting": "[4]; 135 mg/kg/dose IP", "value": 15.3, "unit": "days"},
      {"measurement": "Tumor-Free Survival/Total", "setting": "[4]; 135 mg/kg/dose IP", "value": "0/5"},
      {"measurement": "plasma penclomedine levels associated with severe emesis and seizures", "setting": "[5]", "value": "above 30 μM"},
      {"measurement": "neurotoxicity in rats", "setting": "[6]", "value": "muscle tremors, incoordination, convulsions and reduced activity"},
      {"measurement": "T-C", "setting": "[7]; 135 mg/kg/dose IP", "value": 1.5, "unit": "days"},
      {"measurement": "Tumor-Free Survival/Total", "setting": "[7]; 135 mg/kg/dose IP", "value": "0/5"},
      {"measurement": "detectability in the nervous system", "setting": "[8]; during the time period of neurologic symptoms, rats, O'Reilly et al.", "value": "penclomedine but not its metabolite is detectable in the nervous system"},
      {"measurement": "predominant radioactive species in the brain", "setting": "[8]; tumor-bearing rats", "value": "the predominant radioactive species in the brain was ^14 C-penclomedine"}
    ]},
    {"compound": "COc1nc(C(Cl)(Cl)Cl)c(Cl)c(O)c1Cl", "note": "[4-Demethylpenclomedine, 3,5-dichloro-2-methoxy-4-hydroxy-6-(trichloromethyl)-pyridine]", "values": [
      {"measurement": "accumulation over the 5 day treatment", "setting": "[2]; 9 patients", "value": "accumulation of metabolite was observed in all 9 patients"},
      {"measurement": "time after end of infusion at which plasma levels equal those of penclomedine", "setting": "[2]; [9]", "value": "≤ 10", "unit": "min"},
      {"measurement": "time present in plasma", "setting": "[2]; clinical samples", "value": "> 24", "unit": "h"},
      {"measurement": "ratio of demethylpenclomedine to penclomedine in plasma", "setting": "[2]; final day of five day schedule, often", "value": "greater than 10"},
      {"measurement": "persistence in plasma", "setting": "[2]; five day treatment schedule", "value": "persisted in the plasma for an extended period of time"},
      {"measurement": "plasma level time course", "setting": "[2]; [11]", "value": "continues to increase with time"},
      {"measurement": "drug exposure relative to parent compound", "setting": "[2]; [12]", "value": "several hundred times that of the parent compound"},
      {"measurement": "plasma level relative to peak plasma level of penclomedine", "setting": "[2]; [12]", "value": "greater than ten times the peak plasma level of penclomedine"},
      {"measurement": "T-C", "setting": "[3]; 90 mg/kg/dose IP, days 12-16", "value": "> 41.0", "unit": "days"},
      {"measurement": "Tumor-Free Survival/Total", "setting": "[3]; 90 mg/kg/dose IP, days 12-16", "value": "3/5"},
      {"measurement": "T-C", "setting": "[3]; 90 mg/kg/dose IP, days 15-19", "value": "> 37.2", "unit": "days"},
      {"measurement": "Tumor-Free Survival/Total", "setting": "[3]; 90 mg/kg/dose IP, days 15-19", "value": "3/5"},
      {"measurement": "T-C", "setting": "[3]; [13]", "value": 36.7, "unit": "days"},
      {"measurement": "Tumor-Free Survival/Total", "setting": "[3]; [13]", "value": "2/5"},
      {"measurement": "T-C, comparison of the two compounds", "setting": "[3]; Table 2", "value": "nearly identical T-C"},
      {"measurement": "activity against MX-1 tumors (T-C)", "setting": "[3]; Table 2", "value": "active against MX-1, colon, and renal tumors"},
      {"measurement": "T-C", "setting": "[4]; 90 mg/kg/dose IP", "value": 14.5, "unit": "days"},
      {"measurement": "Tumor-Free Survival/Total", "setting": "[4]; 90 mg/kg/dose IP", "value": "0/5"},
      {"measurement": "activity against renal tumors (T-C)", "setting": "[4]; Table 2", "value": "active against MX-1, colon, and renal tumors"},
      {"measurement": "T-C", "setting": "[7]; 90 mg/kg/dose IP", "value": 6.0, "unit": "days"},
      {"measurement": "Tumor-Free Survival/Total", "setting": "[7]; 90 mg/kg/dose IP", "value": "0/5"},
      {"measurement": "activity against colon tumors (T-C)", "setting": "[7]; Table 2", "value": "active against MX-1, colon, and renal tumors"}
    ]}
  ]
}
